Experimental data from paper PMC12698583, “Efficacy of sulfonamides targeting malic enzyme in an animal model of Chagas disease” (Frontiers in Pharmacology, 2025).

Experiments:
Kinetic solubility = assay type: physicochemical; conditions: 25 °C
Procedure: These conditions simulate stomach acidity, plasma neutrality, and intestinal basicity.
For the chemical stability experiment, the compounds were evaluated under the same conditions with an additional incubation at 37 °C for a period of 24 h. The analysis was performed using an analytical method developed and validated by high-performance liquid chromatography with UV detection (HPLC-UV). Compounds were quantified in different pH media by comparing the areas where the substances were completely soluble with those in the reaction media. The experiments were performed in a triplicate.
These conditions simulate stomach acidity, plasma neutrality, and intestinal basicity. […] For the chemical stability experiment, the compounds were evaluated under the same conditions with an additional incubation at 37°C for a period of 24 hours. The analysis was performed using an analytical method developed and validated by high-performance liquid chromatography with UV detection (HPLC-UV). Compounds were quantified in the different pH media by comparing the areas where the substances were completely soluble with those in the reaction media. The experiments were performed in triplicate.

[1] = Oral bioavailability (plasma concentration); assay type: in vivo, BALB/c mice; conditions: mice; for concentration at 1 h: female, BALB/c, mouse, plasma, 50 mg/kg, oral administration, after 1 h; for plasma concentration (in words): single oral dose 50 mg/kg, 5-60 min
Procedure: For the in vivo assays, female BALB/c mice, aged between 8 and 9 weeks and weighing approximately 25 g, were used. […] After preparation, three animals received a single oral dose of 50 mg/kg for each compound via gavage. The control group received only the vehicle. Blood samples were collected at 5-, 15-, 30-, 45-, and 60-minute post-administration using submandibular vein puncture, retro-orbital collection, and intracardiac (terminal) puncture. The mice were maintained under inhalation anesthesia with 3% isoflurane throughout the sampling period to ensure animal welfare. Blood samples were transferred to heparin-containing tubes and processed by centrifugation (4,000 rpm, 10 min, 4 °C) to separate the plasma. The obtained plasma was transferred to clean vials and stored at -80 °C until analysis. Compound quantification was performed using ultra-performance liquid chromatography coupled with tandem mass spectrometry (UPLC-MS/MS).

[2] = across pH conditions (1.7, 7.4, 8.9)

Compound | Kinetic solubility (Kinetic solubility; acidic pH (1.7), 5 µM) [%] | Kinetic solubility (Kinetic solubility; [2]) | Kinetic solubility (Kinetic solubility; basic pH (8.9), 5 µM) [%] | Kinetic solubility (Kinetic solubility; neutral pH (7.4), 5 µM) [%] | concentration at 1 h [1] [nM] | plasma concentration (in words) [1]
COc1ccc(NS(=O)(=O)c2cccc(NC(=O)c3cnccn3)c2)cc1 [AC-R008, N-(3-(N-(4-methoxyphenyl)sulfamoyl)phenyl)pyrazine-2-carboxamide] | 75 | above 60% | 75 | 75 | ≤ 1000 | between EC50 and EC90
CC(C)Oc1ccc(NS(=O)(=O)c2cccc(NC(=O)c3cnccn3)c2)cc1 [AC-M110, N-(3-(N-(4-isopropoxyphenyl)sulfamoyl)phenyl)pyrazine-2-carboxamide] | 65 | above 60% | 74 | 65 | ≤ 1000 | between EC50 and EC90
